Marks after values point to notes of the source that are not given here. Where no end group is shown, it is not given here.
Legend:
[1] = system: MDA-MB-231 cells (CD44+ human breast adenocarcinoma cells); assay: Chemotactic chamber (Boyden) assay, migration through polycarbonate filters; format: cell-based; conditions: for MI buffer / MI: Table 4; for MI buffer: cells migrating in response to peptide divided by cells migrating in response to buffer; for Migratory Index: Table 3, cells migrating in response to peptide/cells migration in response to LVLDPK; for mean number of migrating cells per six random high powered fields: Table 2; for MI: migratory index; for chemotactic response of MDA-MB231 (in words): p<0.01, 200 ng of bone OPN; for mean number of migrating cells per random high power field: Table 1, 4 hours
Protocol: Each peak was then tested for mediation of chemotaxis or for its ability to inhibit OPN mediated chemotaxis using the chemotactic assay as follows (see e.g., Weber et al. (1996) Science 271:509-512). Briefly, uncoated polycarbonated filters (pore size […] ) were used to separate the upper and lower chambers of chemotactic wells. 1×10^3 MDA-MB-231 cells (CD44^+human breast adenocarcinoma cells) were added to the upper chamber and incubated in the presence or absence of the indicated 50 pmols peptide. After 4 hours, the filters were removed, fixed in methanol arid stained with hematoxylin and eosin. Cells which have responded to the peptide, migrate to various areas of the lower surface and can be counted microscopically. Each data point is reported as the mean number of migrating cells per random high power field.
Peptide 51 was identified as being chemotactic. The peptide was sequenced using a gas-phase sequenator and determined to have the sequence LVLDPK (SEQ ID NO:1). To confirm that chemotaxis was due to this peptide, a 16 amino acid peptide spanning the chemotactic sequence in OPN was synthesized and tested for its chemotactic properties. The resulting peptide, SP64 has the sequence KFHSHKDKLVLDPKSK (SEQ ID NO:2) and containing the chemotactic sequence from residues 9-14. 2×10^4 MDA-MB-231 cells were assayed for chemotactic response to the indicated peptides as described above. Each data point is reported as the mean number of migrating cells per six random high powered fields ± standard error of the mean. Each experiment was repeated four times.
To test the amino acid specificity for chemotactic response several substitutions were created in the chemotactic sequence and the new peptides tested for their ability to induce chemotaxis. Data are expressed as migratory index (cells migrating in response to peptide/cells migration in response to LVLDPK, SEQ ID NO:1).
(§1) To evaluate the potential of peptide analogues to inhibit OPN induced chemotaxis, 100 nmoles of peptide was added to the lower compartment and the response of these cells to OPN was determined as described. MI(buffer) was calculated by dividing the number of cells migrating in response to peptide by the number of cells migrating in response to buffer. MI(inhibitory) equals the number of cells migrating towards OPN in the presence of buffer divided by the number migrating towards OPN in the presence of peptide.

MDA-MB-231 cells = assay: Inhibition of OPN induced chemotaxis in the chemotactic chamber assay; format: cell-based, human; conditions: for MI inhibitory: Table 4, 100 nmoles of peptide, cells migrating towards OPN in presence of buffer divided by number migrating towards OPN in presence of peptide
Protocol: as §1

[2] = system: cells recruited into the peritoneum; assay: In vivo chemotaxis after injection of peptide into the peritoneal cavity, lavage and flow cytometry; parameters: species or system C57 black mice; conditions: for induction ratio, Total / induction ratio, Total CD44 / induction ratio, B-lymphocytes / induction ratio, T-lymphocytes / induction ratio, Monocytes: 25 nmols i.p., 6 hours, normalized to PBS-injected mouse, average of 6 mice; for induction ratio, B-lymphocytes: B220+; for induction ratio, T-lymphocytes: CD3+; for induction ratio, Monocytes: Mac-1+; for chemotactic activity in vivo (in words): mouse
Protocol: Since the peptide LVLDPK (SEQ ID NO:1) was chemotactic to tumor cells and macrophages in vitro, we tested whether the peptide was chemotactic in vivo. 25 nmols of the peptide were injected into the peritoneal cavity of C57 black mice. After six hours the cells recruited into the peritoneum were recovered by lavage and identified by flow cytometry. Titration of soluble peptides into the peritoneum induces a cellular infiltrate in a dose dependent manner. The induction ratio is the number of cells of a particular lineage recovered from the peritoneum of a peptide-injected mouse (e.g., 6 hours after injection) normalized for each experiment to the number of cells of the same lineage recovered from the peritoneum of a PBS-injected mouse. Cell numbers for PBS-injected mice ranged from […] to 646,000 cells total; 182,300 to 325,000 CD44^+ cells; 224,000 to 496,000 […] cells; 31,300 to 76,000 B220^+ cells; 18,100 to 21,100 CD3^+ cells), representing the induction of macrophages (Mac-1^+), B cells (B220^+), and T cells (CD3^+). Values represent an average of 6 mice.

[3] = labelled agent in lower chamber, Ab64 in upper chamber
[4] = labelled agent in lower chamber, OPN in upper chamber
[5] = labelled agent in lower chamber, PBS in upper chamber, 2×10^4 cells
[6] = labelled agent in lower chamber, SP64 in upper chamber
[7] = labelled agent in lower chamber, pep 51 in upper chamber
[8] = labelled agent in upper chamber, PBS in lower chamber

| Substance | MI buffer [1] | MI inhibitory (MDA-MB-231 cells) | chemotactic activity (in words) [1] | Migratory Index [1] | MI [1] | other results |
| --- | --- | --- | --- | --- | --- | --- |
| Acetyl-LVLDP (Ac-LVLDP) [pepK″] | 1 | 4 |  |  |  |  |
| ILVDPK (OTHER INFORMATION: Description of Artificial Sequence:Synthetic Peptide) |  |  | chemotactic activity |  |  |  |
| ILVVDPK (OTHER INFORMATION: Description of Artificial Sequence:Synthetic Peptide) [pepK′] |  |  |  | 1.0 |  |  |
| KFHSHKDKLVLDPKSK (OTHER INFORMATION: Description of Artificial Sequence:Synthetic Peptide) [SP64] | 12 | 9 |  | 1 | 1 | mean number of migrating cells per six random high powered fields [1, 3]: 25 cells per six random high powered fields; mean number of migrating cells per six random high powered fields [1, 4]: 66 cells per six random high powered fields; mean number of migrating cells per six random high powered fields [1, 5]: 217 cells per six random high powered fields; mean number of migrating cells per six random high powered fields [1, 6]: 66 cells per six random high powered fields; mean number of migrating cells per six random high powered fields [1, 7]: 97 cells per six random high powered fields; mean number of migrating cells per six random high powered fields [1, 8]: 243 cells per six random high powered fields; chemotactic response of MDA-MB231 (in words) [1]: stimulated the chemotactic response |
| LELDPK (OTHER INFORMATION: Description of Artificial Sequence:Synthetic Peptide) [pepH] | 2 | 10 |  | 0.3 | 0.3 |  |
| LLVDPK (OTHER INFORMATION: Description of Artificial Sequence:Synthetic Peptide) |  |  | chemotactic activity |  |  |  |
| LVIDPK (OTHER INFORMATION: Description of Artificial Sequence:Synthetic Peptide) [pepD] | 11 | 9 |  | 1 | 1 |  |
| LVLAPK (OTHER INFORMATION: Description of Artificial Sequence:Synthetic Peptide) [pepI] | 1 | 9 |  | 0.1 | 0.1 |  |
| LVLDEK (OTHER INFORMATION: Description of Artificial Sequence:Synthetic Peptide) [pepE] | 2 | 10 |  | 0.2 | 0.2 |  |
| LVLDP (OTHER INFORMATION: Description of Artificial Sequence:Synthetic Peptide) [pepG] | 0 | 4 |  | 0.1 | 0.1 | inhibition of chemotaxis by peptide (in words) (MDA-MB-231 cells; migratory index against peptide 51): inhibits chemotaxis |
| LVLDPA (OTHER INFORMATION: Description of Artificial Sequence:Synthetic Peptide) [pepK] |  |  |  | 0.1 |  |  |
| LVLDPK (OTHER INFORMATION: Description of Artificial Sequence:Synthetic Peptide) [peptide 51, chemotactic tryptic peptide of osteopontin] | 10 | 10 | chemotactic | 1 | 1 | induction ratio, Total [2]: 8.6*; induction ratio, Total CD44 [2]: 7.9*; induction ratio, B-lymphocytes [2]: 1.3; induction ratio, T-lymphocytes [2]: 1.3; induction ratio, Monocytes [2]: 7.1*; chemotactic activity in vivo (in words) [2]: chemotactic to macrophages in vivo; mean number of migrating cells per random high power field ([1]; labelled peptide (50 pmols) in lower chamber, PBS in upper chamber, 1×10^3 cells): 68* cells per random high power field; mean number of migrating cells per random high power field ([1]; labelled peptide in lower chamber, peptide 49 in upper chamber): 83* cells per random high power field; mean number of migrating cells per random high power field ([1]; labelled peptide in lower chamber, peptide 50 in upper chamber): 56* cells per random high power field; mean number of migrating cells per random high power field ([1]; labelled peptide in lower chamber, peptide 51 in upper chamber): 32 cells per random high power field; mean number of migrating cells per random high power field ([1]; labelled peptide in lower chamber, peptide 52 in upper chamber): 78* cells per random high power field; mean number of migrating cells per random high power field ([1]; labelled peptide in lower chamber, peptide 53 in upper chamber): 62* cells per random high power field; mean number of migrating cells per random high power field ([1]; labelled peptide in upper chamber, PBS in lower chamber): 13 cells per random high power field; mean number of migrating cells per six random high powered fields [1, 3]: 21 cells per six random high powered fields; mean number of migrating cells per six random high powered fields [1, 4]: 48 cells per six random high powered fields; mean number of migrating cells per six random high powered fields [1, 5]: 248 cells per six random high powered fields; mean number of migrating cells per six random high powered fields [1, 6]: 109 cells per six random high powered fields; mean number of migrating cells per six random high powered fields [1, 7]: 65 cells per six random high powered fields; mean number of migrating cells per six random high powered fields [1, 8]: 6 cells per six random high powered fields; chemotactic response of MDA-MB231 (in words) [1]: stimulated the chemotactic response |
| LVLEPK (OTHER INFORMATION: Description of Artificial Sequence:Synthetic Peptide) [pepJ] | 6 | 9 |  | 0.6 | 0.6 |  |
| LVLVPK (OTHER INFORMATION: Description of Artificial Sequence:Synthetic Peptide) [pepA] |  |  |  | 0.2 |  | induction ratio, Total [2]: 1.3; induction ratio, Total CD44 [2]: 1.8; induction ratio, B-lymphocytes [2]: 1; induction ratio, T-lymphocytes [2]: 1.1; induction ratio, Monocytes [2]: 1.2 |
| LVPDPK (OTHER INFORMATION: Description of Artificial Sequence:Synthetic Peptide) [pepB] | 10 | 8 |  | 1 | 1 |  |
| LVPDSK (OTHER INFORMATION: Description of Artificial Sequence:Synthetic Peptide) [pepC] | 7 | 10 |  | 1 | 1 |  |
| VDPK (OTHER INFORMATION: Description of Artificial Sequence:Synthetic Peptide) |  |  | retain chemotactic activity |  |  |  |
| VLDPK (OTHER INFORMATION: Description of Artificial Sequence:Synthetic Peptide) [pepF] | 6 | 7 |  | 0.7 | 0.7 | induction ratio, Total [2]: 4; induction ratio, Total CD44 [2]: 3.1; induction ratio, B-lymphocytes [2]: 1.1; induction ratio, T-lymphocytes [2]: 0.8; induction ratio, Monocytes [2]: 2.8; chemotactic activity in vivo (in words) [2]: chemotactic but exhibited less activity |
| VLDSK (OTHER INFORMATION: Description of Artificial Sequence:Synthetic Peptide) |  |  | retain chemotactic activity |  |  |  |
| VVLDPK (OTHER INFORMATION: Description of Artificial Sequence:Synthetic Peptide) |  |  | chemotactic activity |  |  |  |
